Measurements taken from publication PMC8558502 (The Biochemical journal, 2020).

Key:
Rhizopus delemar = assay: Growth; type: cell-based; conditions: kojic acid 50 μg/ml, 3 days
[1] = system: R. delemar tyrosinase enzyme activity; type: cell-based, Rhizopus delemar; conditions: 10 μg/ml, 3 days, protein extract with 10 mM L-DOPA
[2] = system: Rhizopus delemar melanin production; conditions: cited from earlier work

Row | SMILES | Effect on growth of fungal hyphae (Rhizopus delemar) | Inhibitory effect on melanin biosynthesis (tyrosinase activity) of R. delemar [1] | Reduction of melanin production from R. delemar [2]
1 | O=c1cc(CO)occ1O [Kojic acid] | significant reduction in the growth of fungal hyphae | highest | –
2 | CC(C)c1ccc(C=O)cc1 [Cuminaldehyde, cuminaldehyde] | – | highest | causes reduction of melanin production
